Data published in patent US6391914B1, “Optically active aminopentane derivatives” (Fujimoto Brothers Co., Ltd., priority 1998, dated 2002).
Counter-ions that a name gives are not always drawn. Like-named read-outs stand apart in the source and are kept apart here.

Assays:
[1] = biological target: T1, monoamine oxidase type-B (MAO-B) (Mus musculus, UniProt Q8BW75); test: Mice brain MAO-B inhibition (14C-phenylethylamine); type: biochemical; settings: concentration of 10^−5 mol/L
T1 construct: the pellet was resuspended in the above buffer to be enzyme solution; from tissue; host or cells: whole brain of male C57Bl/6 mice, 40,000 g pellet
T1 sequence (Q8BW75 1-520): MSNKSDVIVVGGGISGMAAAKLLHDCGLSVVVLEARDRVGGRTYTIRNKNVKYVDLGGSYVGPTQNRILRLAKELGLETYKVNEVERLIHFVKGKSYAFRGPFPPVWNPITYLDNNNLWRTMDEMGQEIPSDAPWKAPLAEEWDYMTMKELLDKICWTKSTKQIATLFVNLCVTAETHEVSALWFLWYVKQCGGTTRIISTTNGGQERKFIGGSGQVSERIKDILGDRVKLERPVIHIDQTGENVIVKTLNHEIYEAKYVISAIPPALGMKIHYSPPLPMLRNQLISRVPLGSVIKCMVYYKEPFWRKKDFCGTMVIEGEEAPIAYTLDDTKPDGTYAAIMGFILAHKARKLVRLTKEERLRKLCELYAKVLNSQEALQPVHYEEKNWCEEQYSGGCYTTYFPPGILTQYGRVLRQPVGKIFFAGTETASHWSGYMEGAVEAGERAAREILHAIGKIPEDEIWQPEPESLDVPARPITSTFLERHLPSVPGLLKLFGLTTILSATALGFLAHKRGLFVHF
Protocol: After male C57B1/6 mice were decapitated, the whole brain was isolated immediately. The brain samples were weighed, and homogenized in 0.2 mol/L potassium phosphate buffer (pH 7.5) containing 1.0% EDTA-2Na by homogenizer. After the homogenate was centrifuged at 2,000 RPM for 20 min, the supernatant was centrifuged at 18,000 RPM (40,000 g) for 30 min. The pellet was resuspended, and further centrifuged in the same manner. Thereafter, the pellet was resuspended in the above buffer to be enzyme solution. All procedure was carried out at 4° C.
^14C-Labeled substrate (^14C-phenylethylamine) and enzyme solution from mice are mixed in test tube, incubated for 30 min at 37° C., and stopped the reaction with 20 μL of 6 mol/L Hcl. The reaction product was extracted with toluene-ethylacetate (1:1), and the radioactivity was measured using scintillation counter. Then, MAO-B inhibitory activity was calculated.

[2] = test system: tetrabenazine-treated rats; test: Conditioned avoidance task in the shuttle box, tetrabenazine-treated rats; type: in vivo, rat; settings: for Minimum dose to cause conditioned avoidance reflexes (CARs) in tetrabenazine-treated rats in shuttle box: with tetrabenazine 1 mg/kg s.c.
Protocol: The method described in Life Sci., 58, 817-827 (1996) was used. The effects on conditioned avoidance reflex (CARs) were analyzed in the shuttle box using male and female rats (weighing 200-220 g) whose learning abilities were reduced by the administration of tetrabenazine. The instrument was constructed, according to the device described in Psychopharmacologia 10, 1-5 (1966). The male and female rats (weighing 200-220 g) were trained to cross the barrier under a conditioned stimulus. (CS, light flash and buzzer sounds). […] In addition, the unconcerned performance to this condition was noted as an intersignal reaction (IR). The rats were trained with 100 trials a day for 5 days. Each trial was carried out with 15-sec intertrial interval. Tetrabenazine saline solution was subcutaneously administered at a dose of 1 mg/kg 1 hr before the test. Then the solution of the compounds of the invention was administered at the doses of 1, 2, 2.5 and 5 mg/kg, s.c., simultaneously with tetrabenazine. The numbers of CARs, EFs and IRs were automatically counted and analyzed using one-way analysis of variance (ANOVA).
Therefore, the compound has no stimulant-like excitement.

[3] = test system: primary cultured hepatocyte; test: Toxicity screening using primary cultured hepatocyte (LDH release); type: cell-based, rat; settings: 24 hr
Protocol: The hepatocytes was prepared from rat liver using collagenase perfusion method and the cell suspension containing 5×10^5 cells/mL were prepared. After cultivation for 24 hr, the medium was changed to the William's Medium E (GIBCO ERL) containing 10 or 100 μmol/L of the compounds of the invention. After cultivation for 24 hr, the activity of lactatedehydrogenase (LDH) released into the medium was measured.

α2 receptor = test: Receptor affinity, 3H-rauwolscine binding; parameters: species or system rats; settings: 0.7 nmol/L 3H-rauwolscine, read-out: Affinity to α2 receptor: concentration showing 50% inhibition between ligand and receptor
Protocol: The receptor solution was prepared as follows. After the rats were decapitated, brain was immediately isolated and weighed. Thereafter, brain samples were homogenized in ten times volumes of ice-cold 0.35 mol/L sucrose (pH 7.4) using glass homogenizer with Teflon pestle, which was revolted by motors. The homogenate was centrifuged at 4° C. at 900×g for 10 min and the supernatant was, furthermore, recentrifuged at 4° C. at 22,000×g for 20 min. The precipitate was suspended with addition of 5 mmol/L phosphate buffer solution (pH 7.4). After the suspension was incubated at 37° C. for 30 min, the suspension was recentrifuged at 4° C. at 20,000×g for 20 min. The precipitate was resuspended in 10 ml of 5 mmol/L phosphate buffer solution (pH 8.0) to be receptor solution.
^3H-prazocin was used as a ligand. 0.25 nmol/L of ^3H-prazocin, the compounds of the invention and the receptor solution, which were respectively prepared in 5 mmol/L phosphate buffer (pH 8), were put in tube and the mixture was incubated at 25° C. for 90 min. In addition, the nonspecific binding was evaluated with binding value of ^3H-prazocin in the presence of 0.1 μmol/L prazocin. The binding assay was carried out as follows. After ^3H-prazocin (binding type: B) bound to receptor, only the binding type of ^3H-prazocin was collected using B/F separator (Brandel, USA) with glass fiber filter (pore size: 0.5 μm Whatman GF/C), and free type of prazocin (free type: F) was removed. Glass-fiber filter, absorbing the binding type of ^3H-prazocin, was washed with ice-cold saline solution and transferred to vial. After 10 ml of scintillation cocktail was put in it, the radioactivity was measured. Affinity of the compounds of the invention to α1 receptor was evaluated from the inhibition rate of binding between α1 receptor and the ligand.
Affinities of the compounds of the invention to receptors of α2, D1, D2, 5-HT1 and 5-HT2 were respectively determined in the same manner, while used 0.7 nmol/L ^3H-rauwolscine, 1.4 nmol/L ^3H-SCH-23390, 2.0 nmol/L spiperone, 2 nmol/L ^3H-5-HT and 0.5 nmol/L ^3H-ketanserin as each ligands. […]

SMILES	inhibition at 10 µM ([1]; read-out: Mice brain MAO-B inhibitory activity)	Minimum dose to cause conditioned avoidance reflexes (CARs) in tetrabenazine-treated rats in shuttle box ([2]; s.c.)	Percent control of LDH release from primary cultured hepatocyte ([3]; 10 μmol/L)	Percent control of LDH release from primary cultured hepatocyte ([3]; 100 μmol/L)	IC50 (α2 receptor)	Mice brain MAO-B inhibitory activity [1]	IC50 (α2 receptor; hydrochloride)	Reduced learning function of rats administered with tetrabenazine (FIG. 2) ([2]; shuttle box, s.c.)	Intersignal reactions (IRs) ([2]; shuttle box, tetrabenazine-treated rats)	Percent control of LDH release from primary cultured hepatocyte ([3]; 10 μmol/L, hydrochloride)	Percent control of LDH release from primary cultured hepatocyte ([3]; 10 μmol/L, listed as the compound of the invention, hydrochloride)	Percent control of LDH release from primary cultured hepatocyte ([3]; 100 μmol/L, hydrochloride)	Percent control of LDH release from primary cultured hepatocyte ([3]; 100 μmol/L, listed as the compound of the invention, hydrochloride)
CCCNC(CCC)Cc1cc2ccccc2o1.Cl (racemic) [Racemic compound, (±)-1-(benzofuran-2-yl)-2-propylaminopentane hydrochloride]	22.9%	1 mg mg/kg	90.28 ± 2.85 Percent control	112.10 ± 36.98 Percent control	1000 nM	–	–	–	–	–	–	–	–
CCCNC(CCC)Cc1cc2ccccc2o1.Cl (single isomer, unassigned; (+)) [(+)-Isomer, (+)-1-(benzofuran-2-yl)-2-propylaminopentane hydrochloride]	–	2.5 mg mg/kg	124.41 ± 12.54 Percent control	116.72 ± 6.91 Percent control	–	1.7%	2600 nM	–	–	–	–	–	–
CCCNC(CCC)Cc1cc2ccccc2o1 (single isomer, unassigned; (-)) [The compound of the invention, (−)-1-(benzofuran-2-yl)-2-propylaminopentane hydrochloride]	–	5 × 10^−2 mg mg/kg	–	–	–	4.7%	3100 nM	significantly improved	did not significantly change IRs	104.94 ± 4.96 Percent control	not increase	126.42 ± 8.04 Percent control	slightly increased LDH release
